Biological target: T1, Tyrosine-protein phosphatase non-receptor type 11 (Homo sapiens, UniProt Q06124)
T1 sequence (Q06124 whole entry): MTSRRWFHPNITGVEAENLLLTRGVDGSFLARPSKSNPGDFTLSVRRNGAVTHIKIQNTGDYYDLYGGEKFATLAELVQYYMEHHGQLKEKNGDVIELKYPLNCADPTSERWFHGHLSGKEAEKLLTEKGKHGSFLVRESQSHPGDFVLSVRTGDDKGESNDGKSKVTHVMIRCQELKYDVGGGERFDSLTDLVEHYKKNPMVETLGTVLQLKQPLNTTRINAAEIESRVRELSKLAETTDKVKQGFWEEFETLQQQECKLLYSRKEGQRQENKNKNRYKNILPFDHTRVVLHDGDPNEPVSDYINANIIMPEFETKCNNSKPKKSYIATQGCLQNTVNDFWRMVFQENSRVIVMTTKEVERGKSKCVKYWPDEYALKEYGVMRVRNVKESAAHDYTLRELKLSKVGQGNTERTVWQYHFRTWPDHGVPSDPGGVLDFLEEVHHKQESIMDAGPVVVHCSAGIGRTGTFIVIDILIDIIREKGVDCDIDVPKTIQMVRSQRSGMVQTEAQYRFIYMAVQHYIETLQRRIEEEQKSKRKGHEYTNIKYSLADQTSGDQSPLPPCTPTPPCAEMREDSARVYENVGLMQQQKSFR
Test: Negative allosteric modulator activity at SHP2 (unknown origin)

IC50: 12 µM
Structure (SMILES): C[C@@H]1CN(c2ncc(-c3cccc(Cl)c3Cl)c(N)n2)C[C@H](C)N1

— ChEMBL document CHEMBL4428068, “Allosteric Modulation of Phosphatase Activity May Redefine Therapeutic Value” (J Med Chem, 2016)
